According to US20230148214A1, “INDAZOLES AND AZAINDAZOLES AS LRRK2 INHIBITORS” (ESCAPE Bio, Inc., priority 2020, published 2023):

Target: T1, LRRK2 WT (Homo sapiens, UniProt Q5S007)
T1 construct: purchased Life Technologies PR8604B
Experiment: LRRK2 Kinase Activity Assay (LanthaScreen TR-FRET), wild type
Format: biochemical
Conditions: recombinant wild type LRRK2, 25 μM ATP, 400 nM LRRKtide, 60 min; class symbols
Method: LRRK2 kinase activity was measured using a LanthaScreen™ Kinase Activity Assay from ThermoFisher Scientific. Recombinant wild type or G2019S-LRRK2 protein (Life Technologies, PR8604B or PV4881, respectively), was incubated with a fluorescein-labeled peptide substrate called LRRKtide that is based upon ezrin/radixin/moesin (ERM) (Life Technologies, PV4901) in the presence of ATP and serially diluted compound. […] Compound-dependent inhibition of the TR-FRET signal was used to generate a concentration-response curve for IC50 determination.
After 60 min incubation at room temperature, the reaction was stopped by addition of 10 μL of 2×stop solution containing a final concentration of 2 nM anti-pERM antibody and 10 mM EDTA.

T1 sequence (Q5S007 whole entry): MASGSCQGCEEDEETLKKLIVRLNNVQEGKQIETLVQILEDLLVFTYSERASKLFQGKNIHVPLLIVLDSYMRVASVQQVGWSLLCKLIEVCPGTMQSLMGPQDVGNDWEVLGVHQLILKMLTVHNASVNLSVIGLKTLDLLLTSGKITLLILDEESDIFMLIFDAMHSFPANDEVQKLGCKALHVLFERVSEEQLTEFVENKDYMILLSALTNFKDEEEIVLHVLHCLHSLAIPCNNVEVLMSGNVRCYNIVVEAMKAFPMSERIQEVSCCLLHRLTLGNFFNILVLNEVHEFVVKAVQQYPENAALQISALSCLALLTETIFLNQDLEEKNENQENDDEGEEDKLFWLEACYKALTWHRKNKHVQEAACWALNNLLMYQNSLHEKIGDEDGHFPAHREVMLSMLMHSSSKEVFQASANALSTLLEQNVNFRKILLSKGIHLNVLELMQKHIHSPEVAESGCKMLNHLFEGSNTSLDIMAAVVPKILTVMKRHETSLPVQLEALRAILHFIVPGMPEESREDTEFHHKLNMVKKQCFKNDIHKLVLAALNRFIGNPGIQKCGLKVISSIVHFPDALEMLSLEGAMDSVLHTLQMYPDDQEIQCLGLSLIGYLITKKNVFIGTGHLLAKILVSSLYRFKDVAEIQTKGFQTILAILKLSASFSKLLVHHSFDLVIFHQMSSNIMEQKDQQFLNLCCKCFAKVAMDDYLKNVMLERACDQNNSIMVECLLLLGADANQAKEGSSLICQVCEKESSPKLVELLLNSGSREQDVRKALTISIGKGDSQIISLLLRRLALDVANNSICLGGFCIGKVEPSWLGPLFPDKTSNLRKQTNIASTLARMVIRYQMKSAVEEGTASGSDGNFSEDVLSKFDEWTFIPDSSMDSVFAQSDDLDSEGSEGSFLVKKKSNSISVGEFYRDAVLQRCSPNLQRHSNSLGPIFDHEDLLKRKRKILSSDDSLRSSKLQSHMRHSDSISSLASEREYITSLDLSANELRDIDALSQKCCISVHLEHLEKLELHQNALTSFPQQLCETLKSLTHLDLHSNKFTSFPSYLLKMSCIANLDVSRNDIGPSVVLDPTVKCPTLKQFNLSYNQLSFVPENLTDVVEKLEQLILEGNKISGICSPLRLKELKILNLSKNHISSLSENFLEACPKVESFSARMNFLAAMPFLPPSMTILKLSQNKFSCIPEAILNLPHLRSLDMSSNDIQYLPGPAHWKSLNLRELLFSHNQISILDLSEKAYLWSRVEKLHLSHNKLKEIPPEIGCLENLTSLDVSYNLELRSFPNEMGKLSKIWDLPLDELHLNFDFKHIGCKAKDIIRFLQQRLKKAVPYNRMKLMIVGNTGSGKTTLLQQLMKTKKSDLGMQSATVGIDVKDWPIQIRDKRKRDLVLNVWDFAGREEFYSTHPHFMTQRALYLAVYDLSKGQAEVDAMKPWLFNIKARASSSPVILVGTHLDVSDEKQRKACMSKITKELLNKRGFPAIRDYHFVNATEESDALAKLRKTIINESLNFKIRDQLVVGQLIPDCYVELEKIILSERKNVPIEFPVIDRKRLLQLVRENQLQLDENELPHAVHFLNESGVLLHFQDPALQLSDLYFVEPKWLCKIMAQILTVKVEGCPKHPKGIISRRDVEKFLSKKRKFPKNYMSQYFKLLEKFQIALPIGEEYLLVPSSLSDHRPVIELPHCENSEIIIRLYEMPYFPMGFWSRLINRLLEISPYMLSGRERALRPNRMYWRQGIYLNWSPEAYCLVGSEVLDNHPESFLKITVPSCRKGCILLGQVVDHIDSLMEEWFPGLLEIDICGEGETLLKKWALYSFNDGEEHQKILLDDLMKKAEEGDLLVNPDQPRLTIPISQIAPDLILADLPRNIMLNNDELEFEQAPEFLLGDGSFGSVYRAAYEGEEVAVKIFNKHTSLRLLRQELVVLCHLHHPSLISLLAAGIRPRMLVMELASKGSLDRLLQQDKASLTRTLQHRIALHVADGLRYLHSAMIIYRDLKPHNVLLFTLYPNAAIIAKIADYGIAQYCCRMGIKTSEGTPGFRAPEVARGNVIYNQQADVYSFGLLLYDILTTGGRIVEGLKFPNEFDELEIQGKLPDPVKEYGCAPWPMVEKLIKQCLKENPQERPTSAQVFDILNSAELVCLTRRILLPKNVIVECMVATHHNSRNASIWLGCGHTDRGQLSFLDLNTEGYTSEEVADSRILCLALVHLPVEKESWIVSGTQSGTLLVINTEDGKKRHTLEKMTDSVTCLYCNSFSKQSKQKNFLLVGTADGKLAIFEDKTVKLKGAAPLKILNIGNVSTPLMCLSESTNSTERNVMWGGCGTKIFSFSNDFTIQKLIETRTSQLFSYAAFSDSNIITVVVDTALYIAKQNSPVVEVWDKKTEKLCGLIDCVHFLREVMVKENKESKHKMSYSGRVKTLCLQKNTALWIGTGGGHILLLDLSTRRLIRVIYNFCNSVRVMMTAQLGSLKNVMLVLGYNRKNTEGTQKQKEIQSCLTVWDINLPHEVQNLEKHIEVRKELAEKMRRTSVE

| IC50 [µM] | Structure (SMILES) |
| --- | --- |
| < 0.1 | Cc1nc2c(cc1C#N)CCC[C@@H]2Nc1ccc2[nH]nc(-c3cnco3)c2c1 (single isomer, unassigned) [Example 106, enantiomer 2, 2-Methyl-8-((3-(oxazol-5-yl)-1H-indazol-5-yl)amino)-5,6,7,8-tetrahydroquinoline-3-carbonitrile] |
| < 0.1 | CCc1cc(-c2n[nH]c3ccc(N[C@H]4CCCc5cc(C#N)ccc54)cc23)ccn1 (single isomer, unassigned) [Example 116, enantiomer 2, 5-((3-(2-Ethylpyridin-4-yl)-1H-indazol-5-yl)amino)-5,6,7,8-tetrahydronaphthalene-2-carbonitrile] |
| < 0.1 | Cc1c(C#N)ccc2c1CC[C@H]2Nc1ccc2[nH]nc(-c3cnoc3)c2c1 (single isomer, unassigned) [Example 118, enantiomer 2, 1-((3-(Isoxazol-4-yl)-1H-indazol-5-yl)amino)-4-methyl-2,3-dihydro-1H-indene-5-carbonitrile] |
| < 0.1 | N#Cc1ccc2c(c1)CCC[C@H]2Nc1ccc2[nH]nc(-c3cnco3)c2c1 (single isomer, unassigned) [Example 119, enantiomer 2, 5-((3-(Oxazol-5-yl)-1H-indazol-5-yl)amino)-5,6,7,8-tetrahydronaphthalene-2-carbonitrile] |
| < 0.1 | CCc1cc(-c2n[nH]c3ccc(O[C@@H]4CCCc5cc(C#N)cnc54)cc23)ccn1 (single isomer, unassigned) [Example 121, enantiomer 2, 8-((3-(2-Ethylpyridin-4-yl)-1H-indazol-5-yl)oxy)-5,6,7,8-tetrahydroquinoline-3-carbonitrile] |
| 0.1 to 1 | Cc1n[nH]c2ccc(N[C@H]3CCc4c(C#N)cccc43)cc12 (single isomer, unassigned) [Example 129, enantiomer 2, 1-((3-Methyl-1H-indazol-5-yl)amino)-2,3-dihydro-1H-indene-4-carbonitrile] |
| < 0.1 | N#Cc1cc(F)c2c(c1)CC[C@H]2Nc1ccc2[nH]nc(-c3cnco3)c2c1 (single isomer, unassigned) [Example 132, enantiomer 2, 5-((5-Cyano-7-fluoro-2,3-dihydro-1H-inden-1-yl)amino)-3-(oxazol-5-yl)-1H-indazol-2-ium] |
| < 0.1 | N#Cc1cnc2c(c1C(F)(F)F)CCC[C@@H]2Nc1ccc2[nH]nc(-c3cnco3)c2c1 (single isomer, unassigned) [Example 145, enantiomer 2, 8-((3-(Oxazol-5-yl)-1H-indazol-5-yl)amino)-4-(trifluoromethyl)-5,6,7,8-tetrahydroquinoline-3-carbonitrile] |
| < 0.1 | COc1c(C#N)cnc2c1CCC[C@@H]2Nc1ccc2[nH]nc(-c3cnco3)c2c1 (single isomer, unassigned) [Example 146, enantiomer 2, 4-Methoxy-8-((3-(oxazol-5-yl)-1H-indazol-5-yl)amino)-5,6,7,8-tetrahydroquinoline-3-carbonitrile] |
| 0.1 to 1 | COc1c(C#N)cnc2c1CC[C@@H]2Nc1ccc2[nH]nc(-c3cnco3)c2c1 (single isomer, unassigned) [Example 154, enantiomer 1, 4-Methoxy-7-((3-(oxazol-5-yl)-1H-indazol-5-yl)amino)-6,7-dihydro-5H-cyclopenta[b]pyridine-3-carbonitrile] |
| < 0.1 | Cc1ncc(-c2n[nH]c3ccc(N[C@H]4CCCc5cc(C#N)c(C)nc54)cc23)o1 (single isomer, unassigned) [Example 159, enantiomer 2, 2-Methyl-8-((3-(2-methyloxazol-5-yl)-1H-indazol-5-yl)amino)-5,6,7,8-tetrahydroquinoline-3-carbonitrile] |

Continued, compound first:

| Structure (SMILES) | IC50 [µM] |
| --- | --- |
| Cc1c(C#N)ccc2c1CC[C@@H]2Nc1ccc2[nH]nc(-c3cnn(C(F)F)c3)c2c1 (single isomer, unassigned) [Example 52, enantiomer 2, 1-((3-(1-(Difluoromethyl)-1H-pyrazol-4-yl)-1H-indazol-5-yl)amino)-4-methyl-2,3-dihydro-1H-indene-5-carbonitrile] | < 0.1 |
| COc1c(C#N)ccc2c1CCC[C@@H]2Nc1ccc2[nH]nc(-c3cnco3)c2c1 (single isomer, unassigned) [Example 101, enantiomer 2, 1-Methoxy-5-{[3-(1,3-oxazol-5-yl)-1H-indazol-5-yl]amino}-5,6,7,8-tetrahydronaphthalene-2-carbonitrile] | < 0.1 |
| N#Cc1cnc2c(c1)CC[C@@H]2Oc1ccc2[nH]nc(-c3cnco3)c2c1 (single isomer, unassigned) [Example 103, enantiomer 2, 7-((3-(Oxazol-5-yl)-1H-indazol-5-yl)oxy)-6,7-dihydro-5H-cyclopenta[b]pyridine-3-carbonitrile] | < 0.1 |
| Cc1c(C#N)cnc2c1CC[C@@H]2Nc1ccc2[nH]nc(-c3cnco3)c2c1 (single isomer, unassigned) [Example 108, enantiomer 2, 4-Methyl-7-((3-(oxazol-5-yl)-1H-indazol-5-yl)amino)-6,7-dihydro-5H-cyclopenta[b]pyridine-3-carbonitrile] | < 0.1 |
| N#Cc1cc2c(nc1Cl)[C@@H](Nc1ccc3[nH]nc(-c4cnco4)c3c1)CCC2 (single isomer, unassigned) [Example 112, enantiomer 2, 2-Chloro-8-((3-(oxazol-5-yl)-1H-indazol-5-yl)amino)-5,6,7,8-tetrahydroquinoline-3-carbonitrile] | < 0.1 |
| COc1c(C#N)ccc2c1CC[C@@H]2Nc1ccc2[nH]nc(-c3cnco3)c2c1 (single isomer, unassigned) [Example 113, enantiomer 2, 4-Methoxy-1-((3-(oxazol-5-yl)-1H-indazol-5-yl)amino)-2,3-dihydro-1H-indene-5-carbonitrile] | < 0.1 |
| N#Cc1cnc2c(c1)CCC[C@H]2Nc1ccc2[nH]nc(-c3cnco3)c2c1 (single isomer, unassigned) [Example 120, enantiomer 2, 8-((3-(Oxazol-5-yl)-1H-indazol-5-yl)amino)-5,6,7,8-tetrahydroquinoline-3-carbonitrile] | < 0.1 |
| N#Cc1cc2c(cn1)[C@H](Oc1ccc3[nH]nc(-c4cnco4)c3c1)CCC2 (single isomer, unassigned) [Example 122, enantiomer 2, 8-((3-(Oxazol-5-yl)-1H-indazol-5-yl)oxy)-5,6,7,8-tetrahydroisoquinoline-3-carbonitrile] | < 0.1 |
| COc1cc(-c2n[nH]c3ccc(O[C@H]4CCCc5cc(C#N)cnc54)cc23)ccn1 (single isomer, unassigned) [Example 123, enantiomer 2, 8-((3-(2-Methoxypyridin-4-yl)-1H-indazol-5-yl)oxy)-5,6,7,8-tetrahydroquinoline-3-carbonitrile] | < 0.1 |
| Cc1c(C#N)ccc2c1CC[C@@H]2Nc1ccc2[nH]nc(I)c2c1 (single isomer, unassigned) [Example 127, enantiomer 2, 1-((3-Iodo-1H-indazol-5-yl)amino)-4-methyl-2,3-dihydro-1H-indene-5-carbonitrile] | 0.1 to 1 |
| Cc1cc(C#N)cc2c1[C@@H](Nc1ccc3[nH]nc(-c4cnco4)c3c1)CC2 (single isomer, unassigned) [Example 131, enantiomer 2, 7-Methyl-1-((3-(oxazol-5-yl)-1H-indazol-5-yl)amino)-2,3-dihydro-1H-indene-5-carbonitrile] | < 0.1 |
| N#Cc1cnc2c(c1)CCC[C@@H]2Oc1ccc2[nH]nc(-c3cnn(C(F)F)c3)c2c1 (single isomer, unassigned) [Example 141, enantiomer 2, 8-((3-(1-(Difluoromethyl)-1H-pyrazol-4-yl)-1H-indazol-5-yl)oxy)-5,6,7,8-tetrahydroquinoline-3-carbonitrile] | < 0.1 |
| N#Cc1cnc2c(c1)CCC[C@@H]2Nc1ccc2[nH]nc(-c3cncs3)c2c1 (single isomer, unassigned) [Example 142, enantiomer 2, 8-((3-(Thiazol-5-yl)-1H-indazol-5-yl)amino)-5,6,7,8-tetrahydroquinoline-3-carbonitrile] | < 0.1 |
| N#Cc1ccc2c(c1Cl)CCC[C@@H]2Nc1ccc2[nH]nc(-c3cnco3)c2c1 (single isomer, unassigned) [Example 143, enantiomer 2, 1-Chloro-5-((3-(oxazol-5-yl)-1H-indazol-5-yl)amino)-5,6,7,8-tetrahydronaphthalene-2-carbonitrile] | < 0.1 |
| N#Cc1ccc2c(c1F)CC(F)(F)[C@@H]2Nc1ccc2[nH]nc(-c3cnco3)c2c1 (single isomer, unassigned) [Example 151, enantiomer 2, 2,2,4-Trifluoro-1-((3-(oxazol-5-yl)-1H-indazol-5-yl)amino)-2,3-dihydro-1H-indene-5-carbonitrile] | < 0.1 |
| Cc1ncc(-c2n[nH]c3ccc(N[C@@H]4c5ccc(C#N)cc5CC4(F)F)cc23)o1 (single isomer, unassigned) [Example 155, enantiomer 2, 2,2-Difluoro-1-((3-(2-methyloxazol-5-yl)-1H-indazol-5-yl)amino)-2,3-dihydro-1H-indene-5-carbonitrile] | < 0.1 |
| Cc1ncc(-c2n[nH]c3ccc(O[C@H]4CCc5c4ccc(C#N)c5F)cc23)o1 (single isomer, unassigned) [Example 156, enantiomer 2, 4-Fluoro-1-((3-(2-methyloxazol-5-yl)-1H-indazol-5-yl)oxy)-2,3-dihydro-1H-indene-5-carbonitrile] | < 0.1 |
| Cc1cc(-c2n[nH]c3ccc(N[C@H]4CCCc5cc(C#N)cnc54)cc23)sn1 (single isomer, unassigned) [Example 158, enantiomer 2, 8-((3-(3-Methylisothiazol-5-yl)-1H-indazol-5-yl)amino)-5,6,7,8-tetrahydroquinoline-3-carbonitrile] | < 0.1 |
